Data from paper PMC6070649, “The solute transport and binding profile of a novel nucleobase cation symporter 2 from the honeybee pathogen Paenibacillus larvae” (FEBS Open Bio, 2018).

T1: PlUacP (P. larvae uric acid permease-like protein) (Paenibacillus larvae, UniProt V9VZQ8)
T1 construct: gene pbuX
T1 sequence (V9VZQ8 1-434): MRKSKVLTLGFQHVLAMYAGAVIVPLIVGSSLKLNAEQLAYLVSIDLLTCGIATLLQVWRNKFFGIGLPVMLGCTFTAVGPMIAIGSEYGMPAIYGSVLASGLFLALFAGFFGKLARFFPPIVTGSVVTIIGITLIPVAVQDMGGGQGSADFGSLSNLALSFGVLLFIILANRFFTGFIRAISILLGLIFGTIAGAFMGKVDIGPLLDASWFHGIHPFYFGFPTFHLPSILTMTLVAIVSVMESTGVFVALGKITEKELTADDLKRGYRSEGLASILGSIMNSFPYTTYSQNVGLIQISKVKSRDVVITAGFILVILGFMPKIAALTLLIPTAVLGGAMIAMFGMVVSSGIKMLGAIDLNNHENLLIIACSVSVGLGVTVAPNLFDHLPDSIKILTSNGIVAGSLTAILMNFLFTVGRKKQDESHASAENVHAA


Tests used:
[1] = target: T1, PlUacP (P. larvae uric acid permease-like protein); experiment: competition with [3H]-adenine uptake in yeast; assay type: cell-based; conditions: competitive; 1 μM [2,8-3H]-adenine, 1 mM unlabelled competitor, S. cerevisiae RG191, 5 min
[2] = substrate: Nc1ncnc2nc[nH]c12; experiment: cells, lysate or membranes; conditions: labelled compound [2,8-3H]-adenine 0.1-30 μM, S. cerevisiae RG191, 10 min, 100 mM citrate pH 3.5, 1% glucose, Lineweaver-Burk

| Molecule | % adenine uptake at 1 mM competitor [1] | Km [2] [µM] |
| --- | --- | --- |
| Nc1cc[nH]c(=O)n1 [cytosine] | guanine, cytosine, hypoxanthine, xanthine, uric acid, and uracil all compete with adenine | – |
| O=c1[nH]c(=O)c2[nH]cnc2[nH]1 [xanthine] | guanine, cytosine, hypoxanthine, xanthine, uric acid, and uracil all compete with adenine | – |
| O=c1[nH]c(=O)c2[nH]c(=O)[nH]c2[nH]1 [uric acid] | guanine, cytosine, hypoxanthine, xanthine, uric acid, and uracil all compete with adenine | – |
| Nc1nc2[nH]cnc2c(=O)[nH]1 [guanine] | guanine, cytosine, hypoxanthine, xanthine, uric acid, and uracil all compete with adenine | – |
| O=c1[nH]cnc2nc[nH]c12 [hypoxanthine] | guanine, cytosine, hypoxanthine, xanthine, uric acid, and uracil all compete with adenine | – |
| PlUacP (P. larvae uric acid permease-like protein) (Paenibacillus larvae subsp. larvae DSM 25430) (protein) MRKSKVLTLGFQHVLAMYAGAVIVPLIVGSSLKLNAEQLAYLVSIDLLTCGIATLLQVWRNKFFGIGLPVMLGCTFTAVGPMIAIGSEYGMPAIYGSVLASGLFLALFAGFFGKLARFFPPIVTGSVVTIIGITLIPVAVQDMGGGQGSADFGSLSNLALSFGVLLFIILANRFFTGFIRAISILLGLIFGTIAGAFMGKVDIGPLLDASWFHGIHPFYFGFPTFHLPSILTMTLVAIVSVMESTGVFVALGKITEKELTADDLKRGYRSEGLASILGSIMNSFPYTTYSQNVGLIQISKVKSRDVVITAGFILVILGFMPKIAALTLLIPTAVLGGAMIAMFGMVVSSGIKMLGAIDLNNHENLLIIACSVSVGLGVTVAPNLFDHLPDSIKILTSNGIVAGSLTAILMNFLFTVGRKKQDESHASAENVHAA | – | 7.04 ± 0.18 |
